Test results: US6399649B1, “Compositions and methods for the treatment of chronic lymphocytic leukemia” (Boston Medical Center Corporation, priority 1998, dated 2002)

How the values were obtained:
CLL cells [1] = assay: Hoechst 33342 apoptosis assay, CLL cells; format: cell-based, human; settings: for percentage of apoptotic cells: three days
Protocol: (§1) Hoechst 33342 was dissolved in water and frozen at 33 mg/mL at −20° C. One million cells/well were incubated in duplicate or triplicate in 48 well tissue culture plates (Costar, Cambridge, Mass.) with or without drug treatment for […] in 1 mL of culture media. Cells were transferred to 12×75 mm polystyrene Falcon® 2054 FACS tubes (Becton Dickinson Labware, Lincoln Park, N.J.) and incubated for ten minutes at 37° C. with Hoechst 33342 at a final concentration of […]. 23 Cells were stored on ice until analysis on a FACS Vantage flow cytometer (Becton Dickinson, San Jose, Calif.). Hoechst 33342 dye fluorescence was excited with a UV laser and detected using a 450 bandpass filter; Data was analyzed using Cellquest software (Becton Dickinson, San Jose, Calif.).
As a more quantitative analysis of CLL apoptosis, we utilized a flow cytometry method in which apoptotic cells are distinguished both by their reduced size (FSC) and their increased uptake of the lipophilic UV fluorescent dye Hoechst 33342 (FL-4) when the intact, heterogeneous cell population is incubated with a low concentration of the dye (0.25 ug/mL) for 10 minutes at 37° C. Specifically, cells were cultured for 72 hours in media (1), 1uMol/L rolipram (2), 40 uMol/L forskolin (3) or a combination of the two drugs (FIG. 6). The abcissa reflects forward light scatter and the ordinate Hoechst 33342 fluorescence. Apoptotic cells are characterized by reduced forward light scatter and increased Hoechst 33342 fluorescence. Previous reports of cAMP induced lymphoid apoptosis have noted that this form of programmed cell death may take 48 to 72 hours to develop maximally. […] CLL cells were cultured for 72 hours in one mL of media with the indicated concentration of rolipram with (black bars) or without (stippled bars) the addition of 40 uMol/L forskolin.

PDE1 enzymes = settings: cited from earlier work
CLL cells [2] = assay: cAMP assay (RIA) in CLL cells; format: cell-based, human; settings: 30 uMol/L with forskolin; two hours
Protocol: One million cells in 1 mL were treated for two hours with or without drugs. 0.8 mL of cells were pelleted by spinning at 4,000 rpm (RCF=1,310) in microcentrifuge tube. After discarding 0.7 mL, 400 uL of ethanol was added, vortexed and left on ice for five minutes. Particulate cell debris was removed by centrifugation at 14,000 rpm (RCF=16,000). The supernatant was stored at −20° C. until the day of assay, at which time it was dried in a Speedivac (Savant, Farmingdale, N.Y.) to a volume of 50 uL. After ten-fold dilution in 10 mMol/L Tris pH 8.0, 1 mMol/L EDTA, the cAMP sample was analyzed for cAMP concentration using a cAMP RIA kit (NEN, Boston, Mass.) according to the manufacturer's instructions using the nonacetylated protocol.
In this example, it was determined what role type 1 and type 4 PDE activity might play in the catabolism of cyclic nucleotides in CLL cells. cAMP levels were measured after culturing leukemic cells with varying concentrations of PDE-isoform specific inhibitors, either alone or in conjunction with an activator of adenylate cyclase, the diterpene forskolin. Specifically, one million freshly isolated cells were incubated with the indicated drugs for two hours prior to analysis of cAMP in cell lysates using a radioimmunoassay. The results are shown in FIG. 4 and the data are the mean of three individually assayed culture wells.

Bal-17 cells = assay: cAMP assay (RIA) in Bal-17 cells; format: cell-based, murine; settings: basal and forskolin-stimulated (data not shown)
[3] = test system: magnetic bead purified CD19+B cells; assay: Hoechst 33342 apoptosis assay, CD19+ B cells; format: cell-based, human; settings: 72 hours
Protocol: as §1
This example describes the effect of PDE4 inhibition on normal B and T cells. […] Specifically, one million WMC were cultured with the indicated concentration of rolipram with or without the addition of 40 uMol/L forskolin for 72 hours in the presence of 2 units/mL IL-2. Apoptosis was determined by Hoechst 33342 flow cytometry. […] In contrast, magnetic bead purified CD19+B cells were sensitive to rolipram, although the increment in apoptosis observed was superimposed on a high basal apoptosis rate that has previously been reported in cultured human B cells. Given that crosslinking of cell surface immunoglobulin on resting B cells has been reported to reduce basal and forskolin-induced apoptosis in culture, we also stimulated CD19+ cells with a polyclonal Fab′2 anti-IgM/IgG reagent 30 minutes prior to the addition of the phosphodiesterase inhibitor.

[4] = test system: IL-2 cultured WMC (>90% CD3+ T cells); assay: Hoechst 33342 apoptosis assay, IL-2 cultured WMC; format: cell-based, human; settings: 72 hours, comparable treatments
CLL cells [5] = settings: cited from earlier work
[6] = Pt. 3, Rai IV, Drug Res. Ch, CH, basal 38, 10 uMol/L rolipram, 40 uMol/L forskolin or 100 uMol/L dbcAMP
[7] = Pt. 6, Rai IV, Drug Res. Ch, basal 17 ± 4, 10 uMol/L rolipram, 40 uMol/L forskolin or 100 uMol/L dbcAMP
[8] = Pt. 7, Rai II, Drug Res. Ch, basal 13 ± 2, 10 uMol/L rolipram, 40 uMol/L forskolin or 100 uMol/L dbcAMP
[9] = Pt. 9, Rai IV, Drug Res. Ch, Cy, Fl, basal 4 ± 0, 10 uMol/L rolipram, 40 uMol/L forskolin or 100 uMol/L dbcAMP
[10] = Pt. 11, Rai 0, basal 24 ± 4, 10 uMol/L rolipram, 40 uMol/L forskolin or 100 uMol/L dbcAMP
[11] = Pt. 14 (significant population of cells with prolymphocyte morphology), Rai I, basal 13 ± 0, 10 uMol/L rolipram, 40 uMol/L forskolin or 100 uMol/L dbcAMP

Question: What does the source list for C=C[C@@]1(C)CC(=O)[C@]2(O)[C@@]3(C)[C@@H](O)CCC(C)(C)[C@@H]3[C@H](O)[C@H](OC(C)=O)[C@@]2(C)O1 [forskolin]?
Answer: percentage of apoptotic cells (CLL cells [1]; Pt. 2, Rai IV, Drug Res. Ch, Cy, basal 18 ± 2, 10 uMol/L rolipram, 40 uMol/L forskolin or 100 uMol/L dbcAMP): 46%; percentage of apoptotic cells (CLL cells [1]; [6]): 59 ± 0%; percentage of apoptotic cells (CLL cells [1]; [7]): 30 ± 4%; percentage of apoptotic cells (CLL cells [1]; [8]): 32 ± 0%; percentage of apoptotic cells (CLL cells [1]; Pt. 8, Rai 0, basal 5, 10 uMol/L rolipram, 40 uMol/L forskolin): 22%; percentage of apoptotic cells (CLL cells [1]; [9]): 17 ± 4%; percentage of apoptotic cells (CLL cells [1]; Pt. 10, Rai I, basal 11, 10 uMol/L rolipram, 40 uMol/L forskolin or 100 uMol/L dbcAMP): 26 ± 4%; percentage of apoptotic cells (CLL cells [1]; [10]): 40 ± 3%; percentage of apoptotic cells (CLL cells [1]; Pt. 12, Rai IV, Drug Res. Ch, Fl, 2C, basal 0 ± 4, 10 uMol/L rolipram, 40 uMol/L forskolin or 100 uMol/L dbcAMP): 43 ± 1%; percentage of apoptotic cells (CLL cells [1]; [11]): 19 ± 3%

Question: Which IC50 (PDE1 enzymes) does the source give for CCOC(=O)C1=C[C@]2(CC)CCCN3CCc4c(n1c1ccccc41)[C@@H]32 [vinpocetine] here?
Answer: Its IC50 is 21 µM.

Question: And the “CLL cell cAMP” value (CLL cells [2])?
Answer: Its value is “not augmented above levels induced by forskolin alone”.

Question: And the “cAMP levels in Bal-17 cells” value (Bal-17 cells)?
Answer: Its value is “reduced both basal and forskolin-stimulated cAMP levels”.

Question: And the CLL cell apoptosis (CLL cells [1]; 10 or 30 uMol/L)?
Answer: The CLL cell apoptosis was “underwent apoptosis”.

Question: And the “time of peak apoptosis” value (CLL cells [1]; CLL cells (data not shown))?
Answer: Its value is ≤ 24 h.

Question: Which “percentage of apoptotic cells relative to control cells” value ([3]; anti-Ig stimulated B cells, comparable treatments) does the source give for CCCC(=O)Nc1ncnc2c1ncn2[C@@H]1O[C@@H]2COP(=O)(O)O[C@H]2[C@H]1OC(=O)CCC [dbcAMP, dibutyryl cAMP] here?
Answer: The value was “did not significantly increase”.

Question: And the “percentage of apoptotic cells relative to control cells” value ([3]; resting B cells, 10 uMol/L rolipram, 40 uMol/L forskolin, dbcAMP greater than or equal to 30 mMol/L)?
Answer: Its value is “increased significantly”.

Question: What about the “percentage of apoptotic cells relative to control cells” value [4] of the same compound?
Answer: The value was “did not significantly increase”.

Question: And the “percentage of apoptotic cells relative to control cells” value (CLL cells [1]; CLL cells, 72 hours, 10 uMol/L rolipram, 40 uMol/L forskolin, dbcAMP greater than or equal to 30 mMol/L)?
Answer: The value was “increased significantly”.

Question: And the “percentage of apoptotic cells” value (CLL cells [1]; [6])?
Answer: The value was 71 ± 3%.

Question: And the “percentage of apoptotic cells” value (CLL cells [1]; [7])?
Answer: The value was 39 ± 4%.

Question: What about the “percentage of apoptotic cells” value (CLL cells [1]; [8]) of the same compound?
Answer: Its value is 32 ± 4%.

Question: What about the “percentage of apoptotic cells” value (CLL cells [1]; [9]) of the same compound?
Answer: Its value is 46 ± 1%.

Question: What about the “percentage of apoptotic cells” value (CLL cells [1]; [10]) of the same compound?
Answer: Its value is 39 ± 2%.

Question: What about the “percentage of apoptotic cells” value (CLL cells [1]; Pt. 13, Rai 0, basal 2 ± 0, 10 uMol/L rolipram, 40 uMol/L forskolin or 100 uMol/L dbcAMP) of the same compound?
Answer: Its value is 23 ± 6%.

Question: What about the “percentage of apoptotic cells” value (CLL cells [1]; [11]) of the same compound?
Answer: Its value is 22 ± 0%.

Question: With Cn1c(=O)c2[nH]cnc2n(C)c1=O [Theophylline] as the compound, how does the “apoptosis in CLL cells” value (CLL cells [5]) read?
Answer: The value was “induces apoptosis”.
